Laboratory results taken from patent publication US20070292967A1, “Assay for Ligands of the Ecdysone Receptor” (COMMONWEALTH SCIENTIFIC AND INDUSTRIAL RESEARCH OR, priority 2003, published 2007).
Where “and” joins values, the source holds several entries; their conditions need not be identical. Equal values may be shown once.

Tests used:
[1] = biological target: MpLBD, recombinant M. persicae ecdysone receptor (Myzus persicae, UniProt A3EZJ9); assay: manual radioligand-based competitive inhibition assay ([3H]ponasterone A), MpLBD; assay type: binding; details: for ability to compete with [3H]ponasterone A / bind to MpLBD (in words): radioligand-based assay
Method: The ability of inokosterone and fluorescent conjugates thereof to bind to recombinant M. persicae ecdysone receptor was assessed using the conventional radioligand binding assay in a competetive inhibition format (adapted from Koelle et al., 1991).
These procedures were performed manually, as follows. Assays were performed in EcR40 buffer [25 mM Hepes, 40 mM KCl, 10% glycerol, 1 mM sodium EDTA, 3 mM sodium azide] containing 0.5 mg/ml bovine serum albumin (BSA). An extract containing recombinant M. persicae edcdysone receptor, MpLBD, was prepared as described above and diluted in EcR40 buffer containing 0.5 mg/ml BSA to a concentration that generated filter counts around 10 000 cpm when the assay was done in the absence of competing ligands. […] Assays were set up to contain different final concentrations of fluorescent ecdysteroid by including the appropriate volumes of the relevant stock solutions. […] Each incubation was performed in a final volume of […] at room temperature (22° C.) for 90 min, whereupon it was held on ice until the filter adsorption/wash steps could be performed. Three 140 μl aliquots from each completed incubation were applied to glass microfibre filters (GF/C 24 mm diameter, Whatman, Cat. No. 1822024); i.e., every incubation generated three filters, each of which had been wet using 140 μl of the incubation mixture. After exposure to the liquid for 30 sec at room temperature, the wet filter was transferred to a vacuum sinter apparatus (Pyrex Filter Holder, Millipore Corp., Cat. No. XX1002500) and washed rapidly. Washing was done using 2×5 ml of ice-cold EcR40 buffer, intersperced with 3×0.5 ml buffer applied around the circumference of the filter to ensure that its edges were thoroughly rinsed. The damp filter was then transferred to a scintillation vial. When all the filters had been thus processed, 7 ml Packard InstaGel Plus scintillant was added to each scintillation vial. The sealed vials were vortexed and then incubated at room temperature for at least 2 h, during which time the filters became transparent. The vials were then scintillation counted (1 min per filter, tritium program, Packard TriCarb 2100TR scintillation counter). Datapoints were reported as the mean cpm value ±SEM for the three replicate filters arising from each incubation.
The inhibitor concentration at this midpoint was deemed to be the IC50 value for the inhibitor.

BtLBD [2] = biological target: T1, BtLBD (Bemisia tabaci, UniProt A0A142K0N3); assay: FP competitive inhibition assay with MB4628 tracer, BtLBD; assay type: binding; details: 6 nM functional BtLBD, 36 nM MB4628, 2 mM CHAPS, Cheng-Prusoff; read-out: FP-derived Ki, BtLBD
Method: (§1) For competitive inhibition assays, each well contained standard FP assay buffer containing 36 nM MB4628 and either 5 nM functional MpLBD or 6 nM functional BtLBD. The BtLBD assays, but not the MpLBD ones, were routinely done in the presence of 2 mM CHAPS. The final volume of all assays were 250 μl.
(§2) The inhibitor concentration at this midpoint was deemed to be the IC50 value for the inhibitor. IC50 values were converted to Ki values using the Cheng-Prusoff equation (Cheng & Prusoff, 1973), as follows: Ki=IC50/(1+([MB4628]tot/Kd)) where [MB-4628]tot is the total concentration of MB4628 in the assay, and Kd is the dissociation constant for MB4628 with the relevant receptor under the conditions of the assay. The Kd values for use in this equation were calculated from the basic FP titration curves (FIG. 3) using the knowledge that the receptor concentration at the titration midpoint is the value at which the receptor is half-saturated with MB4628. The Kd is the free MB4628 concentration at this point, and must therefore be: Kd=[MB4628]tot−([receptor]midpoint)/2

MpLBD [3] = biological target: T2, MpLBD (Myzus persicae, UniProt A3EZJ9); assay: FP competitive inhibition assay with MB4628 tracer, MpLBD; assay type: binding; details: 5 nM functional MpLBD, 36 nM MB4628, no CHAPS, Cheng-Prusoff; read-out: FP-derived Ki, MpLBD
T2 sequence (A3EZJ9 70-308): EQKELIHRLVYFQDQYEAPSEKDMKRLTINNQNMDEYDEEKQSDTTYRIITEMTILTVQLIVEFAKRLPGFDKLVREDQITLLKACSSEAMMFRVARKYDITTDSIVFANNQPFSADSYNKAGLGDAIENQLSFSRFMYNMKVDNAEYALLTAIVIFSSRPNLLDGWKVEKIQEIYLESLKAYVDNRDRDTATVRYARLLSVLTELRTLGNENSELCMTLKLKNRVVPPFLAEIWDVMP
T2 sequence (A3EZK0 32-259 partner): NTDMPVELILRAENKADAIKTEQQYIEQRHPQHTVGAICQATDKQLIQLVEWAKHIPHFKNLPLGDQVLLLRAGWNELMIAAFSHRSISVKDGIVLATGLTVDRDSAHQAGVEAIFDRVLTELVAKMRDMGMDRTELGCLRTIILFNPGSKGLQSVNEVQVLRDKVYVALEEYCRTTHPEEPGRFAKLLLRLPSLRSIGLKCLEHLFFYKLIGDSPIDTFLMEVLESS
Method: as §1, §2

BtLBD [4] = biological target: T1, BtLBD; assay: miniaturized automated radioligand-based competition assay, BtLBD; assay type: binding; details: 1.3 nM [3H]ponasterone A, no CHAPS, read-out: Ki from radioligand-based BtLBD assay
Method: (§3) Subsequently, a miniaturized and automated version of the radioligand-based competition assay was used with MpLBD and BtLBD to obtain Ki values for the non-radioactive, non-fluorescent ecdysteroids that would later be used to validate the competitive inhibition format of the FP assay. While the concept of the assay was unchanged from that described above, some aspects of its execution were different. […] The mixtures were again allowed to reach equilibrium, but this time for 4 h at room temperature. The MpLBD was then captured on a 96-filter array (Unifilter-96 GF/C, Packard, Cat. No. 6005174) and rinsed using the wash tool and vacuum block of the Biomek 2000. The back of each filter-plate was then manually sealed using a sheet of Packard BackSeal, and 25 μl Packard MicroScint-20 scintillation fluid was dispensed into each well. The top of each plate was sealed with Packard TopSeal-A and the filters were allowed to solvate overnight. […] Since the amount of bound radioactivity was at most 28% of the total present, no additional corrections for ligand depletion were applied.

MpLBD [5] = biological target: T2, MpLBD; assay: miniaturized automated radioligand-based competition assay, MpLBD; assay type: binding; details: 1.3 nM [3H]ponasterone A, no CHAPS, read-out: Ki from radioligand-based MpLBD assay
Method: as §3

LcLBD = assay: FP titration of MB4628 with LcLBD; assay type: binding, Lucilia cuprina; details: 36 nM MB4628, no CHAPS
Method: (§4) The standard FP assay buffer was 50 mM sodium phosphate, 100 mM NaCl, pH 7.4, containing 0.5 mg/ml bovine serum albumin. When required, preparative pipetting steps (such as dilution series) were typically done in conventional V-bottomed 96-well microplates (e.g. V-bottomed polypropylene, Greiner Bio-One, Cat. No. 651201). The assays themselves were set up in opaque black flat-bottomed 96-well plates designed for fluorescence measurements (e.g. Nunc, Cat. No. 237108). The final volume of all assays was 250 μl. The FP plate-reader was a POLARstar Optima (Cat. No. 413-201, BMG Labtechnologies, Offenburg, Germany) with fluorescence polarization optics (installed according to the manufacturer's instructions) and operated by FLUOstar Optima software in Plate Mode (Polarization). Excitation was done at 485 nm (filter 485) and emission was detected at 520 nm (filter 520p). The standard instrument setup involved a 3 sec/3 mm shake for the plate prior to commencing reading; readings used 200 flashes/assay. […]
(§5) A 250 μl sample of 30 nM fluorescein in 50 mM sodium phosphate, 100 mM NaCl, pH 7.4, was known to have a polarization value of 35 mP and was used to calibrate the FP plate-reader. […] Thereafter, at the commencement of each experimental session, the FP plate-reader was adjusted to give a reading of 100 mP for a 250 μl sample of 36 nM MB4628 in standard FP assay buffer. […]

HaLBD = assay: FP titration of MB4628 with HaLBD; assay type: binding, Helicoverpa armigera; details: 36 nM MB4628, no CHAPS
Method: as §4, §5

BtLBD [6] = biological target: T1, BtLBD; assay: FP titration of MB4628 with BtLBD; assay type: binding; details: for Kd: 36 nM MB4628
Method: (§6) The standard FP assay buffer was 50 mM sodium phosphate, 100 mM NaCl, pH 7.4, containing 0.5 mg/ml bovine serum albumin. When required, preparative pipetting steps (such as dilution series) were typically done in conventional V-bottomed 96-well microplates (e.g. V-bottomed polypropylene, Greiner Bio-One, Cat. No. 651201). The assays themselves were set up in opaque black flat-bottomed 96-well plates designed for fluorescence measurements (e.g. Nunc, Cat. No. 237108). The final volume of all assays was 250 μl. The FP plate-reader was a POLARstar Optima (Cat. No. 413-201, BMG Labtechnologies, Offenburg, Germany) with fluorescence polarization optics (installed according to the manufacturer's instructions) and operated by FLUOstar Optima software in Plate Mode (Polarization). Excitation was done at 485 nm (filter 485) and emission was detected at 520 nm (filter 520p). The standard instrument setup involved a 3 sec/3 mm shake for the plate prior to commencing reading; readings used 200 flashes/assay. Gain values were typically around 3000 for each channel, with a K-factor close or equal to 1.0.
(§7) A 250 μl sample of 30 nM fluorescein in 50 mM sodium phosphate, 100 mM NaCl, pH 7.4, was known to have a polarization value of 35 mP and was used to calibrate the FP plate-reader.
Receptor LBD titrations involved mixing a small volume (e.g. 2.5 μl) of diluted receptor LBD heterodimer stock with a larger volume (e.g. 247.5 μl) of standard FP assay buffer containing 36 nM MB4628. Where indicated, CHAPS was present at a final concentration of 2 mM. Receptor dilutions were typically arranged to cover a wide concentration range, e.g. 0.005-50 nM functional receptor. The assay mixtures were allowed to reach equilibrium, typically by incubating overnight at 4° C. and then equilibrating at room temperature (20° C.) for 2-4 h before reading the mP values. When plotting the data, smooth curves were drawn for the FP titrations using a Flexicurve; these represent a more realistic fit to the data than the linear point-to-point plots shown (for convenience of printing) in FIG. 3.
as §2
The effect of omitting CHAPS from BtLBD competitive inhibition assays was tested directly. Thus, in a BtLBD experiment that departed from standard procedure, 10 nM functional BtLBD was incubated with 36 nM MB4628 and increasing concentrations of non-fluorescent ecdysteroids, but without CHAPS.

MpLBD [7] = biological target: T2, MpLBD; assay: FP titration of MB4628 with MpLBD; assay type: binding
Method: as §6, §7
Receptor LBD titrations involved mixing a small volume (e.g. 2.5 μl) of diluted receptor LBD heterodimer stock with a larger volume (e.g. 247.5 μl) of standard FP assay buffer containing 36 nM MB4628. Where indicated, CHAPS was present at a final concentration of 2 mM. […] The assay mixtures were allowed to reach equilibrium, typically by incubating overnight at 4° C. and then equilibrating at room temperature (20° C.) for 2-4 h before reading the mP values. […]
The inhibitor concentration at this midpoint was deemed to be the IC50 value for the inhibitor. […] The Kd values for use in this equation were calculated from the basic FP titration curves (FIG. 3) using the knowledge that the receptor concentration at the titration midpoint is the value at which the receptor is half-saturated with MB4628. […]

## CC(CO)CC[C@@H](O)[C@](C)(O)[C@H]1CC[C@@]2(O)C3=CC(=O)[C@@H]4C[C@@H](O)[C@@H](O)C[C@]4(C)[C@H]3CC[C@]12C (stereo partly drawn) [inokosterone]
[1]
  Ki: 65 nM

## CC(C)CC[C@@H](O)[C@](C)(O)[C@H]1CC[C@@]2(O)C3=CC(=O)[C@@H]4C[C@@H](O)[C@@H](O)C[C@]4(C)[C@H]3CC[C@]12C [ponasterone A]
BtLBD [2]
  Ki: 7.4 nM
MpLBD [3]
  Ki: 1 nM
BtLBD [4]
  Ki: 4.8 nM
MpLBD [5]
  Ki: 0.28 nM and ~0.3 nM

## CC(CCC(O)C(C)(O)C1CCC2(O)C3=CC(=O)C4CC(O)C(O)CC4(C)C3CCC12C)COC(=S)Nc1ccc2c(c1)C(=O)OC21c2ccc(O)cc2Oc2cc(O)ccc21 (stereo not drawn) [MB4628]
LcLBD
  FP titration curve midpoint, LcLBD: 2.5 nM functional receptor
  mPmax, LcLBD: 220 mP
HaLBD
  FP titration curve midpoint, HaLBD: 3.5 nM functional receptor
  mPmax, HaLBD: 230 mP
BtLBD [6]; 36 nM MB4628, 2 mM CHAPS, FIG. 3B experiment
  FP titration midpoint, BtLBD, 2 mM CHAPS: 1.5 nM functional BtLBD
BtLBD [6]; 36 nM MB4628, CHAPS-free, FIG. 3B experiment
  FP titration midpoint, BtLBD, CHAPS-free: 4.5 nM
BtLBD [6]; 36 nM MB4628, no CHAPS
  mPmax, BtLBD: 210-260 mP
BtLBD [6]; 36 nM MB4628, no CHAPS (FIG. 3A)
  FP titration curve midpoint, BtLBD: 1 to 5 nM functional receptor
BtLBD [6]; Kd for MB4628, BtLBD without CHAPS, without CHAPS
  Kd: 34.7 nM
BtLBD [6]; Kd for MB4628 from FP titration curve, BtLBD, with 2 mM CHAPS
  Kd: 35.3 nM
[1]
  Ki: 40 nM
  ability to compete with [3H]ponasterone A / bind to MpLBD (in words): unimpaired
MpLBD [7]; 36 nM MB4628, no CHAPS
  FP titration curve midpoint, MpLBD: 1.1-1.8 nM functional receptor
  maximum mP value (mPmax), MpLBD: 335 mP
MpLBD [7]; without CHAPS, 36 nM MB4628, read-out: Kd for MB4628 from FP titration curve, MpLBD
  Kd: 35.3 nM

## CC(CC[C@@H](O)C(C)(O)C1CC[C@@]2(O)C3=CC(=O)[C@@H]4C[C@@H](O)[C@@H](O)CC4(C)C3CCC12C)COS(=O)(=O)c1cccc2c(N(C)C)cccc12 (stereo partly drawn) [MB4622]
[1]
  ability to compete with [3H]ponasterone A / bind to MpLBD (in words): highly effective ligand
